The source of these data is patent US20250215029A1 (Recludix Pharma, Inc., priority 2022, published 2025).

For one assay, the target named is T1, pY705-STAT3 in PBMC (Homo sapiens, UniProt P40763).
T1 construct: Cryopreserved Peripheral Blood Mononuclear Cells (PBMC) are from AllCells; host or cells: cryopreserved PBMC
T1 sequence (P40763 whole entry): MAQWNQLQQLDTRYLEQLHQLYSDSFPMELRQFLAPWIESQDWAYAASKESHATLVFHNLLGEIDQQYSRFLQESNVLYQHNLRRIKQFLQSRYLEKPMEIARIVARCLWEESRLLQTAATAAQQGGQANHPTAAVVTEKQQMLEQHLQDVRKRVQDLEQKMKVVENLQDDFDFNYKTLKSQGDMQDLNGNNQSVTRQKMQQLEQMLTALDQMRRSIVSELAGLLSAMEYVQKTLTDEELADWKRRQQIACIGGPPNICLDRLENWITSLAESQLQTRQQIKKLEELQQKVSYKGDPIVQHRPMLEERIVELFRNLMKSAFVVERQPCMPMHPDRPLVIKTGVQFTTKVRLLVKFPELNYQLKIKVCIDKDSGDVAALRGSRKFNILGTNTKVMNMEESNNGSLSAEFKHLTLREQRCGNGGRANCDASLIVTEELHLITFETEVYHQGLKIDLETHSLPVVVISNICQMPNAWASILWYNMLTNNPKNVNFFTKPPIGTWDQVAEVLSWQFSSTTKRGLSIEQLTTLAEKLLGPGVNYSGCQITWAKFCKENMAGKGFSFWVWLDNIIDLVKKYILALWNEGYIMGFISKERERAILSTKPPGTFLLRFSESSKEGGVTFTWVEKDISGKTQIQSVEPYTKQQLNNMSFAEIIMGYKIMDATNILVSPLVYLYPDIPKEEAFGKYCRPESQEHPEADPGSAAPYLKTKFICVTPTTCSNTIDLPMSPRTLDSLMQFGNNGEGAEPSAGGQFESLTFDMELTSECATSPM
The assay is described as follows: MSD-pSTAT-PBMC Assay (pSTAT3, IL-6 stimulated). The assay is classed as cell-based. The settings on record: PBMC, compound 3 hrs, then 10 ng/mL IL-6 for 10 min; Table 115; read-out: STAT3. The method in brief:
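Inhibition of cytokine-induced STAT phosphorylation was measured in recovered human PBMC after 3 hrs compound exposure and a 10 min IL-4 (1 ng/mL) or IL-6 (10 ng/mL) challenge. MSD detection of pY641-STAT6 or pY705-STAT3 yielded IC50 values.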
For the molecule `CCOC(=O)[C@H](C)NP(=O)(Cc1ccc2sc(C(=O)N[C@H]3CCC[C@H]4CC[C@@H](C(=O)N5CC(c6cccnc6)C5)N4C3=O)cc2c1)Oc1ccccc1` (stereo partly drawn) [Compound 422, ethyl (((2-(((3S,6S,9aS)-5-oxo-3-(3-(pyridin-3-yl)azetidine-1-carbonyl)octahydro-1H-pyrrolo[1,2-a]azepin-6-yl)carbamoyl)benzo [b]thiophen-5-yl)methyl)(phenoxy)phosphoryl)-L-alaninate], the IC50 is less than 0.1 µM.

On to `CCCOC(=O)[C@H](C)NP(=O)(Cc1ccc2sc(C(=O)N[C@H]3CCC[C@H]4CC[C@@H](C(=O)N5CC(c6cccnc6)C5)N4C3=O)cc2c1)N1CCOCC1` (stereo partly drawn) [Compound 426, propyl (morpholino((2-(((3S,6S,9aS)-5-oxo-3-(3-(pyridin-3-yl)azetidine-1-carbonyl)octahydro-1H-pyrrolo[1,2-a]azepin-6-yl)carbamoyl)benzo [b]thiophen-5-yl)methyl)phosphoryl)-L-alaninate], for which the IC50 was greater than 3 µM.

As for `CCCOC(=O)[C@H](C)NP(=O)(Cc1ccc2sc(C(=O)N[C@H]3CCC[C@H]4CC[C@@H](C(=O)N5CC(c6cccnc6)C5)N4C3=O)cc2c1)OCC(F)(F)F` (stereo partly drawn) [Compound 428, propyl (((2-(((3S,6S,9aS)-5-oxo-3-(3-(pyridin-3-yl)azetidine-1-carbonyl)octahydro-1H-pyrrolo[1,2-a]azepin-6-yl)carbamoyl)benzo [b]thiophen-5-yl)methyl)(2,2,2-trifluoroethoxy)phosphoryl)-L-alaninate], the IC50 was less than 0.1 µM.

On to `CCCOC(=O)[C@H](COC)NP(=O)(Cc1ccc2sc(C(=O)N[C@H]3CCC[C@H]4CC[C@@H](C(=O)N5CC(c6cccnc6)C5)N4C3=O)cc2c1)Oc1ccccc1` (stereo partly drawn) [Compound 430, propyl O-methyl-N-(((2-(((3S,6S,9aS)-5-oxo-3-(3-(pyridin-3-yl)azetidine-1-carbonyl)octahydro-1H-pyrrolo[1,2-a]azepin-6-yl)carbamoyl)benzo [b]thiophen-5-yl)methyl)(phenoxy)phosphoryl)-L-serinate], for which the IC50 is 0.1 to 1 µM.

Turning to `CCCOC(=O)[C@H](CCOC)NP(=O)(Cc1ccc2sc(C(=O)N[C@H]3CCC[C@H]4CC[C@@H](C(=O)N5CC(c6cccnc6)C5)N4C3=O)cc2c1)Oc1ccccc1` (stereo partly drawn) [Compound 431, propyl O-methyl-N-(((2-(((3S,6S,9aS)-5-oxo-3-(3-(pyridin-3-yl)azetidine-1-carbonyl)octahydro-1H-pyrrolo[1,2-a]azepin-6-yl)carbamoyl)benzo [b]thiophen-5-yl)methyl)(phenoxy)phosphoryl)-L-homoserinate], the IC50 fell in the range of 0.1 to 1 µM.

With `CCCOC(=O)[C@H](Cc1ccccn1)NP(=O)(Cc1ccc2sc(C(=O)N[C@H]3CCC[C@H]4CC[C@@H](C(=O)N5CC(c6cccnc6)C5)N4C3=O)cc2c1)Oc1ccccc1` (stereo partly drawn) [Compound 432, propyl (2S)-2-((((2-(((3S,6S,9aS)-5-oxo-3-(3-(pyridin-3-yl)azetidine-1-carbonyl)octahydro-1H-pyrrolo[1,2-a]azepin-6-yl)carbamoyl)benzo [b]thiophen-5-yl)methyl)(phenoxy)phosphoryl)amino)-3-(pyridin-2-yl)propanoate], the IC50 was in the range of 0.1 to 1 µM.

With `CCCOC(=O)[C@H](C)NP(=O)(Cc1ccc2sc(C(=O)N[C@H]3CCC[C@H]4CC[C@@H](C(=O)N5CC(c6cccnc6)C5)N4C3=O)cc2c1)N1CCCC1=O` (stereo partly drawn) [Compound 433, propyl (((2-(((3S,6S,9aS)-5-oxo-3-(3-(pyridin-3-yl)azetidine-1-carbonyl)octahydro-1H-pyrrolo[1,2-a]azepin-6-yl)carbamoyl)benzo [b]thiophen-5-yl)methyl)(2-oxopyrrolidin-1-yl)phosphoryl)-L-alaninate], the IC50 lay in the range of 1 to 3 µM.

Turning to `CCCOC(=O)C1(NP(=O)(Cc2ccc3sc(C(=O)N[C@H]4CCC[C@H]5CC[C@@H](C(=O)N6CC(c7cccnc7)C6)N5C4=O)cc3c2)Oc2ccccc2)CC1` (stereo partly drawn) [Compound 434, propyl 1-((((2-(((3S,6S,9aS)-5-oxo-3-(3-(pyridin-3-yl)azetidine-1-carbonyl)octahydro-1H-pyrrolo[1,2-a]azepin-6-yl)carbamoyl)benzo [b]thiophen-5-yl)methyl)(phenoxy)phosphoryl)amino) cyclopropane-1-carboxylate], the IC50 lay in the range of 0.1 to 1 µM.

For `CCCOC(=O)[C@H](C)NP(=O)(Oc1ccccc1)C(C)c1ccc2sc(C(=O)N[C@H]3CCC[C@H]4CC[C@@H](C(=O)N5CC(c6cccnc6)C5)N4C3=O)cc2c1` (stereo partly drawn) [Compound 435, propyl ((1-(2-(((3S,6S,9aS)-5-oxo-3-(3-(pyridin-3-yl)azetidine-1-carbonyl)octahydro-1H-pyrrolo[1,2-a]azepin-6-yl)carbamoyl)benzo [b]thiophen-5-yl)ethyl)(phenoxy)phosphoryl)-L-alaninate], the IC50 is 0.1 to 1 µM.

For `CCCOC(=O)[C@H](C)NP(=O)(Cc1ccc2sc(C(=O)N[C@H]3CCC[C@H]4CC[C@@H](C(=O)N5CC(c6cccnc6)C5)N4C3=O)cc2c1)OCC(C)(F)F` (stereo partly drawn) [Compound 437, propyl ((2,2-difluoropropoxy)((2-(((3S,6S,9aS)-5-oxo-3-(3-(pyridin-3-yl)azetidine-1-carbonyl)octahydro-1H-pyrrolo[1,2-a]azepin-6-yl)carbamoyl)benzo [b]thiophen-5-yl)methyl)phosphoryl)-L-alaninate], the IC50 was in the range of 0.1 to 1 µM.

Consider `CCCOC(=O)[C@H](C)NP(=O)(Cc1ccc2sc(C(=O)N[C@H]3CCC[C@H]4CC[C@@H](C(=O)N5CC(c6cccnc6)C5)N4C3=O)cc2c1)OCCOC` (stereo partly drawn) [Compound 438, propyl ((2-methoxyethoxy)((2-(((3S,6S,9aS)-5-oxo-3-(3-(pyridin-3-yl)azetidine-1-carbonyl)octahydro-1H-pyrrolo[1,2-a]azepin-6-yl)carbamoyl)benzo [b]thiophen-5-yl)methyl)phosphoryl)-L-alaninate], for which the IC50 was 1 to 3 µM.

Turning to `CCCOC(=O)[C@H](C)NP(=O)(Cc1ccc2sc(C(=O)N[C@H]3CCC[C@H]4CC[C@@H](C(=O)N5CC(c6cccnc6)C5)N4C3=O)cc2c1)OCC` (stereo partly drawn) [Compound 439, propyl (ethoxy((2-(((3S,6S,9aS)-5-oxo-3-(3-(pyridin-3-yl)azetidine-1-carbonyl)octahydro-1H-pyrrolo[1,2-a]azepin-6-yl)carbamoyl)benzo [b]thiophen-5-yl)methyl)phosphoryl)-L-alaninate], the IC50 is 0.1 to 1 µM.

For `CCCOC(=O)[C@H](C)N[P@@](=O)(Oc1ccccc1)[C@@H](F)c1ccc2sc(C(=O)N[C@H]3CCC[C@H]4CC[C@@H](C(=O)N5CC(c6cccnc6)C5)N4C3=O)cc2c1` [Compound 447], the IC50 was less than 0.1 µM.

For `CCCOC(=O)[C@H](C)N[P@@](=O)(Oc1ccccc1)[C@H](F)c1ccc2sc(C(=O)N[C@H]3CCC[C@H]4CC[C@@H](C(=O)N5CC(c6cccnc6)C5)N4C3=O)cc2c1` [Compound 464], the IC50 is less than 0.1 µM.

Still in this assay, the particulars now being: STAT3, PBMC, compound 3 hrs, then 10 ng/mL IL-6 for 10 min; Table 115.
The molecule `CCCOC(=O)C(C)(C)NP(=O)(Cc1ccc2sc(C(=O)N[C@H]3CCC[C@H]4CC[C@@H](C(=O)N5CC(c6cccnc6)C5)N4C3=O)cc2c1)Oc1ccccc1` (stereo partly drawn) [Compound 445, propyl 2-methyl-2-((((2-(((3S,6S,9aS)-5-oxo-3-(3-(pyridin-3-yl)azetidine-1-carbonyl)octahydro-1H-pyrrolo[1,2-a]azepin-6-yl)carbamoyl)benzo [b]thiophen-5-yl)methyl)(phenoxy)phosphoryl)amino) propanoate] displayed an IC50 of less than 0.1 µM.
